According to BigSolDB 2.1:

CC(C)[C@H](N)C(=O)O
Details	solubility (mole fraction)
in DMF, 293.15 K	1.25e-06
in DMF, 303.25 K	2.49e-06
in DMF, 313.25 K	4.36e-06
in DMF, 323.15 K	7.48e-06
in DMF, 333.25 K	1.06e-05
in DMF, 343.25 K	1.49e-05
in acetone, 293.15 K	4.96e-07
in acetone, 302.95 K	9.91e-07
in acetone, 313.35 K	1.98e-06
in acetone, 323.35 K	2.97e-06
in acetone, 328.15 K	3.97e-06
in ethanol, 293.15 K	1.18e-05
in ethanol, 303.75 K	2.36e-05
in ethanol, 313.15 K	3.69e-05
in ethanol, 323.15 K	5.34e-05
in ethanol, 333.25 K	7.62e-05
in ethanol, 343.25 K	0.000109
in isopropanol, 293.45 K	2.56e-06
in isopropanol, 303.05 K	4.61e-06
in isopropanol, 313.35 K	7.17e-06
in isopropanol, 323.25 K	1.08e-05
in isopropanol, 333.05 K	1.54e-05
in isopropanol, 343.35 K	2.1e-05
in water, 293.55 K	0.00884
in water, 303.05 K	0.00938
in water, 313.15 K	0.0101
in water, 323.05 K	0.0109
in water, 333.25 K	0.0117
in water, 343.15 K	0.0129
